Assay results published in patent US20090191253A2 (Creabilis Therapeutics S.P.A., priority 2005, published 2009).

Columns and labels:
[1] = target: T1, SRC (Homo sapiens, UniProt P12931); assay: Kinase inhibition profiling SRC (ELISA); assay type: biochemical
T1 construct: made in house; host or cells: baculovirus expression system
Experimental: (§1) Each test compound was weighed and dissolved in DMSO to make 1 mM stock solution. The stock solution was diluted with DMSO to achieve 20 μM. The compound solution was diluted with the assay buffer to achieve 0.8 μM.

[2] = target: T2, EphB2 (Homo sapiens, UniProt P29323); assay: Kinase inhibition profiling EphB2 (ELISA); assay type: biochemical
T2 construct: Cytoplasmic domain of human EphB2 [581-987 amino; made in house; host or cells: baculovirus expression system
Experimental: as §1

[3] = target: T3, JAK2 (Homo sapiens, UniProt O60674); assay: Kinase inhibition profiling JAK2 (ELISA); assay type: biochemical
T3 construct: Kinase domain (KD) of human JAK2 [826-1132 amino; made in house; host or cells: baculovirus expression system
Experimental: as §1

[4] = target: T4, MAPKAPK2 (Homo sapiens, UniProt P49137); assay: Kinase inhibition profiling MAPKAPK2 (IMAP); assay type: biochemical
T4 construct: His (N); made in house; host or cells: baculovirus expression system
Experimental: as §1

[5] = target: T5, ABL (Homo sapiens, UniProt P00519); assay: Kinase inhibition profiling ABL (ELISA); assay type: biochemical
T5 construct: made in house; host or cells: baculovirus expression system
Experimental: as §1

[6] = target: T6, MET (Homo sapiens, UniProt P08581); assay: Kinase inhibition profiling MET (ELISA); assay type: biochemical; further: ATP 20 µM
T6 construct: made in house; host or cells: baculovirus expression system
Experimental: as §1

[7] = target: T7, RET (Homo sapiens, UniProt P07949); assay: Kinase inhibition profiling RET (ELISA); assay type: biochemical; further: ATP 5 µM
T7 construct: Cytoplasmic domain of human RET [658-1114 amino acids; made in house; host or cells: baculovirus expression system
Experimental: as §1

[8] = target: T8, EphB4 (Homo sapiens, UniProt P54760); assay: Kinase inhibition profiling EphB4 (ELISA); assay type: biochemical
T8 construct: Cytoplasmic domain of human EphB4 [577-987 amino; made in house; host or cells: baculovirus expression system
Experimental: as §1

[9] = target: T9, EphA2 (Homo sapiens, UniProt P29317); assay: Kinase inhibition profiling EphA2 (ELISA); assay type: biochemical
T9 construct: made in house; host or cells: baculovirus expression system
Experimental: as §1

[10] = target: T10, KIT (Homo sapiens, UniProt P10721); assay: Kinase inhibition profiling KIT (ELISA); assay type: biochemical
T10 construct: made in house; host or cells: baculovirus expression system
Experimental: as §1

[11] = target: T11, Erk1 (Homo sapiens, UniProt P27361); assay: Kinase inhibition profiling Erk1 (IMAP); assay type: biochemical
T11 construct: Human Erk1 containing 379 amino acids was expressed; His (N); made in house; host or cells: E. coli
Experimental: as §1

[12] = target: T12, YES (Homo sapiens, UniProt P07947); assay: Kinase inhibition profiling YES (ELISA); assay type: biochemical
T12 construct: made in house; host or cells: baculovirus expression system
Experimental: (§2) In particular, the target kinases were Tyrosine kinases and Serine/Threonine kinases.
as §1

[13] = target: TrkC (Homo sapiens, UniProt Q16288); assay: Kinase inhibition profiling TrkC (ELISA)
Experimental: as §2, §1

[14] = target: T13, CSK (Homo sapiens, UniProt P41240); assay: Kinase inhibition profiling CSK (ELISA); assay type: biochemical
T13 construct: His (N, cleaved yes); made in house; host or cells: baculovirus expression system
Experimental: as §1

[15] = target: T14, PKCε (Homo sapiens, UniProt Q02156); assay: Kinase inhibition profiling PKCε (IMAP); assay type: biochemical
T14 construct: made in house; host or cells: baculovirus expression system
Experimental: as §1

[16] = target: T15, FGR (Homo sapiens, UniProt P09769); assay: Kinase inhibition profiling FGR (ELISA); assay type: biochemical; further: ATP 5 µM
T15 construct: His (N, cleaved yes); made in house; host or cells: baculovirus expression system
Experimental: as §2, §1

[17] = target: T16, FAK (Homo sapiens, UniProt Q05397); assay: Kinase inhibition profiling FAK (ELISA); assay type: biochemical
T16 construct: made in house; host or cells: baculovirus expression system
Experimental: as §1

[18] = target: T17, INSR (Homo sapiens, UniProt P06213); assay: Kinase inhibition profiling INSR (ELISA); assay type: biochemical
T17 construct: Kinase domain (KD) of human INSR [1005-1310 amino; His (N, cleaved yes); made in house; host or cells: baculovirus expression system
Experimental: as §1

[19] = target: T18, RON (Homo sapiens, UniProt Q04912); assay: Kinase inhibition profiling RON (ELISA); assay type: biochemical
T18 construct: Cytoplasmic domain of human RON [979-1400 amino; made in house; host or cells: baculovirus expression system
Experimental: as §1

[20] = target: T19, MAP2K7 (Homo sapiens, UniProt O14733, S271E/S277E/T275E); assay: Kinase inhibition profiling MAP2K7 (AlphaScreen, cascade); assay type: biochemical
T19 construct: T275E, S277E] derived from wild type [419 amino acids; GST (N); made in house; host or cells: E. coli
Text: AlphaScreen Assay [drawing 4]

[21] = target: T20, HCK (Homo sapiens, UniProt P08631); assay: Kinase inhibition profiling HCK (ELISA); assay type: biochemical; further: ATP 20 µM
T20 construct: made in house; host or cells: baculovirus expression system
Experimental: as §2, §1

[22] = target: T21, p38α (Homo sapiens, UniProt Q16539); assay: Kinase inhibition profiling p38α (IMAP); assay type: biochemical
T21 construct: GST (N); made in house; host or cells: E. coli
Experimental: as §1

[23] = target: T22, CaMK2α (Homo sapiens, UniProt Q9UQM7); assay: Kinase inhibition profiling CaMK2α (IMAP); assay type: biochemical
T22 construct: His (N); made in house; host or cells: baculovirus expression system
Experimental: as §2, §1

[24] = target: T23, FLT3 (Homo sapiens, UniProt P36888); assay: Kinase inhibition profiling FLT3 (ELISA); assay type: biochemical
T23 construct: made in house; host or cells: baculovirus expression system
Experimental: as §1

[25] = target: T24, LYNa (Homo sapiens, UniProt P07948); assay: Kinase inhibition profiling LYNa (ELISA); assay type: biochemical
T24 construct: made in house; host or cells: baculovirus expression system
Experimental: as §1

[26] = target: T25, KDR (Homo sapiens, UniProt P35968); assay: Kinase inhibition profiling KDR (ELISA); assay type: biochemical
T25 construct: Cytoplasmic domain of human KDR [790-1356 amino; made in house; host or cells: baculovirus expression system
Experimental: as §2, §1

[27] = target: T26, TNK1 (Homo sapiens, UniProt Q13470); assay: Kinase inhibition profiling TNK1 (ELISA); assay type: biochemical
T26 construct: Kinase domain (KD) of human TNK [110-394 amino; made in house; host or cells: baculovirus expression system
Experimental: as §2, §1

[28] = target: T27, Erk2 (Homo sapiens, UniProt P28482); assay: Kinase inhibition profiling Erk2 (IMAP); assay type: biochemical
T27 construct: Human Erk2 containing 360 amino acids was expressed; His (N); made in house; host or cells: E. coli
Experimental: as §1

[29] = target: T28, HER2 (Homo sapiens, UniProt P04626); assay: Kinase inhibition profiling HER2 (ELISA); assay type: biochemical; further: ATP 5 µM
T28 construct: Cytoplasmic domain of human HER2 [676-1255 amino; made in house; host or cells: baculovirus expression system
Experimental: as §1

[30] = target: T29, TrkB (Homo sapiens, UniProt Q16620); assay: Kinase inhibition profiling TrkB (ELISA); assay type: biochemical
T29 construct: Cytoplasmic domain of human TRKB [456-822 amino; made in house; host or cells: baculovirus expression system
Experimental: as §2, §1

[31] = system: p38β; assay: Kinase inhibition profiling p38β (IMAP); assay type: biochemical, human; settings: K-252a 200 nM, ATP 10 μM
Experimental: as §1

T24 sequence (P07948 whole entry): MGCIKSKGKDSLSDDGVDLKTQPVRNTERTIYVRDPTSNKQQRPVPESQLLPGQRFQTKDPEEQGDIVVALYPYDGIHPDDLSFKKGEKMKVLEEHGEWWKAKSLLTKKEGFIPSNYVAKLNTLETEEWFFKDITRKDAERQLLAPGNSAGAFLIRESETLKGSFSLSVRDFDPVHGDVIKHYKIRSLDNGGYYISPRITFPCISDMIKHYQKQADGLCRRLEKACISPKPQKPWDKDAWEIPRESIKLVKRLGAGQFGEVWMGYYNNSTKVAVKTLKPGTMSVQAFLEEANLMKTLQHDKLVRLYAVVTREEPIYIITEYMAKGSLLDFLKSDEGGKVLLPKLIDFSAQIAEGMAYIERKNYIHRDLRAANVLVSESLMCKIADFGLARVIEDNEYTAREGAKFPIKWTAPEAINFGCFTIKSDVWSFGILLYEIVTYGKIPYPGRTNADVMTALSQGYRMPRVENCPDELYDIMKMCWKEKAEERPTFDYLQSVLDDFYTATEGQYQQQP
T7 sequence (P07949 658-1114): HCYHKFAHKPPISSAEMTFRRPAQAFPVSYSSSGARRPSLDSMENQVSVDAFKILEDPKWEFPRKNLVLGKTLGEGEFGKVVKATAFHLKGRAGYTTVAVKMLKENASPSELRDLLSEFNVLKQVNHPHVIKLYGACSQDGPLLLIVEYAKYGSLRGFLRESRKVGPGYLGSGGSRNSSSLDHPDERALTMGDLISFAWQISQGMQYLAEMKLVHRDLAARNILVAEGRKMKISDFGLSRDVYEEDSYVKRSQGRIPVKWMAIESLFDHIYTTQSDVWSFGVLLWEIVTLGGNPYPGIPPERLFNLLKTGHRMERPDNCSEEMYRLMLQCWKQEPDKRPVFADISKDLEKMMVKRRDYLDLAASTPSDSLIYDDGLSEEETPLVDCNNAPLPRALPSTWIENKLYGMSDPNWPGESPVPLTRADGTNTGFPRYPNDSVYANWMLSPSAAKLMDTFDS
T15 sequence (P09769 whole entry): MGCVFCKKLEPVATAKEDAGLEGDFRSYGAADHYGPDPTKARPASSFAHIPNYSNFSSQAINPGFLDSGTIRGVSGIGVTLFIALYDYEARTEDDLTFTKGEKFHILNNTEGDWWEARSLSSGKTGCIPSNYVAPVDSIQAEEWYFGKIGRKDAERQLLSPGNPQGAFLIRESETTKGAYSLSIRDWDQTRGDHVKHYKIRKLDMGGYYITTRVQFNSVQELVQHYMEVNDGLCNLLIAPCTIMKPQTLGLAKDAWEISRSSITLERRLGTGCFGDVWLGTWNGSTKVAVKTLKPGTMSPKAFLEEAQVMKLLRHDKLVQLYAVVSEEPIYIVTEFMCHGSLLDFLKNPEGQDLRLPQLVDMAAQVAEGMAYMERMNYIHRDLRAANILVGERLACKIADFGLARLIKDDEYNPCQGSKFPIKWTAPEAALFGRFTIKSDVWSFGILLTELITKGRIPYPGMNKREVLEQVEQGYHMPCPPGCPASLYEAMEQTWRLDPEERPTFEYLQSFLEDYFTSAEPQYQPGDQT
T12 sequence (P07947 whole entry): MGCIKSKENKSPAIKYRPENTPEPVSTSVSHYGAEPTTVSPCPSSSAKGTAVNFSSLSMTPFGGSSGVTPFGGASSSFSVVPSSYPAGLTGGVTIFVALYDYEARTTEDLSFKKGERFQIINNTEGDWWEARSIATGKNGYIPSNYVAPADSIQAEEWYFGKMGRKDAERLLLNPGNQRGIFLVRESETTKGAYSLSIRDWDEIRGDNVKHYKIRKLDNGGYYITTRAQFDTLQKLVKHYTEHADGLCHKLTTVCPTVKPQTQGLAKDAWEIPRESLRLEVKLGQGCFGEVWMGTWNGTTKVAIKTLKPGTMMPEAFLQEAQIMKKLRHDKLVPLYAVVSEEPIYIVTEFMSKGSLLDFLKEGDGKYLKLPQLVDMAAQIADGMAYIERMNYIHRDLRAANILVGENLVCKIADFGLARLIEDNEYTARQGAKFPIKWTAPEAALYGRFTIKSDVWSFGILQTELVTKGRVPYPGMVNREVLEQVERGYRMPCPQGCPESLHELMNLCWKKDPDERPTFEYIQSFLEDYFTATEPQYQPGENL
T1 sequence (P12931 whole entry): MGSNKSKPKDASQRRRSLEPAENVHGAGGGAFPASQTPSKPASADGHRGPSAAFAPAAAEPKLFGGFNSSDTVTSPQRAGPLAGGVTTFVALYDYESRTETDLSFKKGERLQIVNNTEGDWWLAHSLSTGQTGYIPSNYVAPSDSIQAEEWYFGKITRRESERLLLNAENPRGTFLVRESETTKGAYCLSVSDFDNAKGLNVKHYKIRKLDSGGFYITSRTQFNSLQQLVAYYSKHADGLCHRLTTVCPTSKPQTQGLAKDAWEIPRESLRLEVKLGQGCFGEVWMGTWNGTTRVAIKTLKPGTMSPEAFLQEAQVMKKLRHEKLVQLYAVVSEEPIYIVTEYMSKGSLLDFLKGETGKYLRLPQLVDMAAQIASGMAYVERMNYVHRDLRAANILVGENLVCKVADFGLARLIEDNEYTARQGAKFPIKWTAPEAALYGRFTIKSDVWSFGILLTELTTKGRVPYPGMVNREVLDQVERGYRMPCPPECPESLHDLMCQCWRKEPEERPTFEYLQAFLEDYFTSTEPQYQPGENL
T25 sequence (P35968 790-1356): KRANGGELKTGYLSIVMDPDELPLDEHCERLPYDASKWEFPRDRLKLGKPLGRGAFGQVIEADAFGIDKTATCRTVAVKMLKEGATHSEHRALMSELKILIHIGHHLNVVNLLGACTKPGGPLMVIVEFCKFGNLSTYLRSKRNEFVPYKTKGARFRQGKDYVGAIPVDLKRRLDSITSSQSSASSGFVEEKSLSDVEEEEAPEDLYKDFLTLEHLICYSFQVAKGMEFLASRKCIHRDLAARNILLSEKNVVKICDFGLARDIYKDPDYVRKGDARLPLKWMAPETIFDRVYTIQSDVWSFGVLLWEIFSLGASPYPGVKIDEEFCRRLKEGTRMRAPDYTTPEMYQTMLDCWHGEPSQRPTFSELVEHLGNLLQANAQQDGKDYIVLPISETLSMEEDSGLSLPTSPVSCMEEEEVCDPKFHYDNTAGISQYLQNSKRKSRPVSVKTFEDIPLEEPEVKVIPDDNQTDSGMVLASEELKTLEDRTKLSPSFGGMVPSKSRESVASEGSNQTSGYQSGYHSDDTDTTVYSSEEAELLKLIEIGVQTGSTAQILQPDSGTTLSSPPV
T3 sequence (O60674 826-1132): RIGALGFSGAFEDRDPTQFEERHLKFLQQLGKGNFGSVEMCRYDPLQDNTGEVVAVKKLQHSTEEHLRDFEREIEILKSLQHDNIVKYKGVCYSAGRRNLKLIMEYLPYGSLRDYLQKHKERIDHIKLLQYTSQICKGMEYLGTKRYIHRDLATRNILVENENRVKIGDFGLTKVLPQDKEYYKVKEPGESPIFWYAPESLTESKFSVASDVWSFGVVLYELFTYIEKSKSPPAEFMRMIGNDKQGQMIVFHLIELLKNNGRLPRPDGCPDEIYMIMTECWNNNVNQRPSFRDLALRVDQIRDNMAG
T11 sequence (P27361 whole entry): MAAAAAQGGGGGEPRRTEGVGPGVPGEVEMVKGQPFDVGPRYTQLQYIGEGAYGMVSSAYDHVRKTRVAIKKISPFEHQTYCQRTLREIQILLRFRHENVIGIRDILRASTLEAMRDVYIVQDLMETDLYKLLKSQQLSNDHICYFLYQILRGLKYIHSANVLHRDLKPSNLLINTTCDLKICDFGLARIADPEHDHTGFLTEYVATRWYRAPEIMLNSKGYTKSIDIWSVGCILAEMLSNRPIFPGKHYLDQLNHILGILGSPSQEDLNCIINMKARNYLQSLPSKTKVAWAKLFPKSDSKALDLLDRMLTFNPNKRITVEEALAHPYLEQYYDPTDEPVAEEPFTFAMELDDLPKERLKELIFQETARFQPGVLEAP
T10 sequence (P10721 544-976): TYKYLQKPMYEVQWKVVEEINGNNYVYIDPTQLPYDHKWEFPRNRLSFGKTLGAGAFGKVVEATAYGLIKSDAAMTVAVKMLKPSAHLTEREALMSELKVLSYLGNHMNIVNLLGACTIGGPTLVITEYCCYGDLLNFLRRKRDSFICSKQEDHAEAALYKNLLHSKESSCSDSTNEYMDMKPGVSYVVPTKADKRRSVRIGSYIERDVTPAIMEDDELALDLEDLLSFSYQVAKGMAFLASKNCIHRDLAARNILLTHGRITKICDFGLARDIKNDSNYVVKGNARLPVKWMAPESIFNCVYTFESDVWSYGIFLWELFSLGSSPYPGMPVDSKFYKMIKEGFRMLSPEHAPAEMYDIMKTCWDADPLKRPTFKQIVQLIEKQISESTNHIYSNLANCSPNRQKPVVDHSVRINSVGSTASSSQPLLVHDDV
T29 sequence (Q16620 456-822): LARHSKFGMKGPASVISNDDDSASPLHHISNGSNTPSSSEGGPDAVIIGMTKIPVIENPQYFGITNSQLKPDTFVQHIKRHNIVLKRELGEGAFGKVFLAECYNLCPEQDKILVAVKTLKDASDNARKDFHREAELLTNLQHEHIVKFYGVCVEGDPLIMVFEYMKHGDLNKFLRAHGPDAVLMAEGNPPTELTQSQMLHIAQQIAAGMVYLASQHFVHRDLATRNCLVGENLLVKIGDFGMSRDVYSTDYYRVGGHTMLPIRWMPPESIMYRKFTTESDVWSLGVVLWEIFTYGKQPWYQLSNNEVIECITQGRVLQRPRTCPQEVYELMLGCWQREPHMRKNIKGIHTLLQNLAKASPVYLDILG
T26 sequence (Q13470 110-394): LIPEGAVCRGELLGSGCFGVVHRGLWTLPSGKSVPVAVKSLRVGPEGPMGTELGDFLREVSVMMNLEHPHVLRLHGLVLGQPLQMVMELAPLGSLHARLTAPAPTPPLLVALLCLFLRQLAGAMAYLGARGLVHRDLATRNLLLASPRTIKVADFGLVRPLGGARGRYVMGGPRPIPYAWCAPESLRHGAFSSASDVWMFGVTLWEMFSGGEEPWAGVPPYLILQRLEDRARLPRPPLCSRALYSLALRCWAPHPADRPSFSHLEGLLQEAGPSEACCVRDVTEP

COC(=O)[C@]1(O)CC2O[C@@]1(C)n1c3ccccc3c3c4c(c5c6ccccc6n2c5c31)C(=O)NC4 [K-252a]
inhibition at 0.2 µM [1]: 20.6%
inhibition at 0.2 µM [2]: 0.4%
inhibition at 0.2 µM [3]: 99.5%
inhibition at 0.2 µM [4]: 44.3%
inhibition at 0.2 µM [5]: -14.2%
inhibition at 0.2 µM [6]: 83.2%
inhibition at 0.2 µM [7]: 94.2%
inhibition at 0.2 µM [8]: 13.3%
inhibition at 0.2 µM [9]: 8.9%
inhibition at 0.2 µM [10]: 87.3%
inhibition at 0.2 µM [11]: 32%
inhibition at 0.2 µM [12]: 65.1%
inhibition at 0.2 µM [13]: 94.4%
inhibition at 0.2 µM [14]: 43%
inhibition at 0.2 µM [15]: 60.9%
inhibition at 0.2 µM [16]: 85.6%
inhibition at 0.2 µM [17]: 53.5%
inhibition at 0.2 µM [18]: 38%
inhibition at 0.2 µM [19]: 5.2%
inhibition at 0.2 µM [20]: 68.2%
inhibition at 0.2 µM [21]: 68.2%
inhibition at 0.2 µM [22]: -1.5%
inhibition at 0.2 µM [23]: 83.9%
inhibition at 0.2 µM [24]: 95.8%
inhibition at 0.2 µM [25]: 58.9%
inhibition at 0.2 µM [26]: 62.9%
inhibition at 0.2 µM [27]: 94.8%
inhibition at 0.2 µM [28]: 14.2%
inhibition at 0.2 µM [29]: 7.7%
inhibition at 0.2 µM [30]: 98.2%
% Inhibition [31]: −0.2%
